Structures can show the parent of a compound that is named as a salt. Where two headings read alike, the source gives them in different places.

One test deals with Nav1.6 (Homo sapiens, UniProt Q9UQD0). Briefly: Nav two-pulse protocol, IonWorks Quattro electrophysiology. The following applies: -120 mV to 0 mV, compound incubated 300 s. Format: cell-based. The method, boiled down: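 Two-pulse protocol on IonWorks Quattro with amphotericin B (200 μg/ml) perforated patch: holding −120 mV, 2.5 s step to 0 mV, 5 ms gap, 20 ms step to 0 mV. Compounds (0.3% DMSO final) incubated 300 s; block taken as Post/Pre peak inward current for each pulse.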
On the technique in general: Patch clamp records ionic current or voltage across a cell membrane.

The conditions of test [1]: secondary progressive MS patients; over 2 years; p=0.02; cited from earlier work.

Sequence of Nav1.6 (Q9UQD0 whole entry): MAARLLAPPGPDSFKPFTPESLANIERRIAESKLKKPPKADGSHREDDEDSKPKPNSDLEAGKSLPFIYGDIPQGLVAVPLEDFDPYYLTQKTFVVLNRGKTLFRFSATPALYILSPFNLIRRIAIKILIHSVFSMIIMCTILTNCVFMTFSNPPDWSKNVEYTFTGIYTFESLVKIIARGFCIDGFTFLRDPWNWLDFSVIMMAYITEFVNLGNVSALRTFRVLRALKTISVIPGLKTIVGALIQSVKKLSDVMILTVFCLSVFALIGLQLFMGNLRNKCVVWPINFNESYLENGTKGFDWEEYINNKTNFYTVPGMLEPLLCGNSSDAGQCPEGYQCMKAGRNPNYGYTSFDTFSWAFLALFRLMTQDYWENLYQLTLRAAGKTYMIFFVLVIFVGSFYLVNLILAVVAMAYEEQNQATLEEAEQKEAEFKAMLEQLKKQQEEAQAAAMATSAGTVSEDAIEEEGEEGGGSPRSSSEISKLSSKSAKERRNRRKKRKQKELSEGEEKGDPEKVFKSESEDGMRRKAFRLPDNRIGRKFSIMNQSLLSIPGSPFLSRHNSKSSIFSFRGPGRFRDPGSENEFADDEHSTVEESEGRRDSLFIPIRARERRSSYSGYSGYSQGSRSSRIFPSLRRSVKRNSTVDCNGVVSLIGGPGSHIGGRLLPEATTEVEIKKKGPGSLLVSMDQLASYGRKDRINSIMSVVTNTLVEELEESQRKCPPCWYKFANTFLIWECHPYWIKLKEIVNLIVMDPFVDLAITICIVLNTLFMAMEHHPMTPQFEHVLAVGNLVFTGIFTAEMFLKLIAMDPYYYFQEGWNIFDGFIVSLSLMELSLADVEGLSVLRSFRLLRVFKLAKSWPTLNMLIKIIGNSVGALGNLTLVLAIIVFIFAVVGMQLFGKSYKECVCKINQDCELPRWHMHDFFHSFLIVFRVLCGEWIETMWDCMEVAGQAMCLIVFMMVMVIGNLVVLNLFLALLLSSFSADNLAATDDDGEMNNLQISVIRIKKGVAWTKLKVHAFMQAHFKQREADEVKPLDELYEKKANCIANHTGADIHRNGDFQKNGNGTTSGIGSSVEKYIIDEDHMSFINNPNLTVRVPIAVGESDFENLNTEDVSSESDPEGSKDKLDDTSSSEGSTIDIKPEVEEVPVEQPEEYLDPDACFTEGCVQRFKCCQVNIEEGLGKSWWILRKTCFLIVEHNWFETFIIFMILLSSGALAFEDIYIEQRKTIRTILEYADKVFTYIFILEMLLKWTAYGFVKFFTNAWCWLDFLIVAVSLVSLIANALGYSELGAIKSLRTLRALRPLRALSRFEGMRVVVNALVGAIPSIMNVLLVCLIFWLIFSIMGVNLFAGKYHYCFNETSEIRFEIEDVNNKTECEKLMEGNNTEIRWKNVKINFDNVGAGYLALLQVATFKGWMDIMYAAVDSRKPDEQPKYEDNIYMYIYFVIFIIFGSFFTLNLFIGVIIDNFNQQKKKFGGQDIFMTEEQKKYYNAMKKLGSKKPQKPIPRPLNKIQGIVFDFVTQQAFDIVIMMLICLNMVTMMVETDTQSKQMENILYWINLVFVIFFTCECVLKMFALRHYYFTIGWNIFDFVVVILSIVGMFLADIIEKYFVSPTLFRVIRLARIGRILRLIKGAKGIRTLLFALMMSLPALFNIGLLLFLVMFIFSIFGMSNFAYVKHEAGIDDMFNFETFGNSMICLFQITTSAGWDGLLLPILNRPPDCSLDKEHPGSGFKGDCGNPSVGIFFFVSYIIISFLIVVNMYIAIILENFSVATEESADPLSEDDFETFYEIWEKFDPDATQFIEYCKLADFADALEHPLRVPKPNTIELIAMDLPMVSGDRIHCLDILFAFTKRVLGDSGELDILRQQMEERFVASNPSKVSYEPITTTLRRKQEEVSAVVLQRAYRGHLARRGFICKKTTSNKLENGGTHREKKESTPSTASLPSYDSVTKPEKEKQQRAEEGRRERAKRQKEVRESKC

For the molecule `CC1(C(=O)N2Cc3ccncc3C2)CCN(Cc2cccc(Oc3ccccc3)c2)C1` (stereo not drawn) [Compound 108, (1,3-Dihydro-pyrrolo[3,4-c]pyridin-2-yl)-[3-methyl-1-(3-phenoxy-benzyl)-pyrrolidin-3-yl]-methanone], the IC50 on Nav1.6 (read-out: Nav1.6 Tonic) was over 20 µM; on Nav1.6 (read-out: Nav1.6 inac), 1 to 5 µM. For `O=C(NCc1ccccn1)C1CCN(Cc2cccc(OC(F)(F)F)c2)C1` (stereo not drawn) [Compound 109, 1-(3-Trifluoromethoxy-benzyl)-pyrrolidine-3-carboxylic acid (pyridin-2-ylmethyl)-amide hydrochloride], in that order: 10 to 20 µM and under 1 µM. For `CC1(C(=O)NCc2ccccn2)CCCN(Cc2cccc(Oc3ccccc3)c2)C1=O` (stereo not drawn) [Compound 110, 3-Methyl-2-oxo-1-(3-phenoxy-benzyl)-piperidine-3-carboxylic acid (pyridin-2-ylmethyl)-amide], in that order: 10 to 20 µM and under 1 µM. `Cc1cc(C)nc(CNC(=O)C2CCN(Cc3cccc(S(=O)(=O)N4CCCC4)c3)C2)c1` (stereo not drawn) [Compound 111, 1-[3-(Pyrrolidine-1-sulfonyl)-benzyl]-pyrrolidine-3-carboxylic acid (4,6-dimethyl-pyridin-2-ylmethyl)-amide hydrochloride]: the IC50 on Nav1.6 (read-out: Nav1.6 Tonic) was over 20 µM; at Nav1.6 (read-out: Nav1.6 inac), 1 to 5 µM. Take `Nc1nnc(-c2cccc(Cl)c2Cl)c(N)n1` [Lamotrigine]: the “deterioration of the timed 25-foot walk” value in test [1] was “reduced the deterioration of the timed 25-foot walk”.

The values are drawn from patent publication US9676757B2, “Heterocyclic compounds as NaV channel inhibitors and uses thereof” (Merck Patent GmbH, priority 2014, dated 2017).
